In patent US5686441A, “Penam sulfones as β-lactamase inhibitors” (Syphar Laboratories, Inc., priority 1995, dated 1997) one finds MIC and IC50 data, which are given here for eight molecules.

One may read the MIC as the smallest concentration in the dilution series that meets the test's criterion for growth inhibition.

The test system of one assay is S. marcescens 200L. The assay is described as follows: MIC, agar dilution method. Conditions: Serratia marcescens, 18 h, read-out: MIC Piperacillin Alone. (In agar dilution the substance is mixed into plates at graded concentrations.)
A further assay concerns E. coli TEM 3. In words: MIC, agar dilution method. Conditions: Escherichia coli, TEM3, 18 h.
In the next assay the test system is S. aureus 54K. The assay is described as follows: MIC, agar dilution method. Conditions: Staphylococcus aureus, 18 h, read-out: MIC Piperacillin Alone.
The subject of a further assay is P. aeruginosa L 46007. In words: MIC, agar dilution method. The conditions noted are these: Pseudomonas aeruginosa, L46007, 18 h, read-out: MIC Piperacillin Alone.
Another assay relates to E. cloacae 40015. In words: MIC, agar dilution method. The conditions noted are these: Enterobacter cloacae, 40015, 18 h, read-out: MIC Piperacillin Alone.
The subject of the next assay is E. cloacae P99. The assay is described as follows: MIC, agar dilution method. The conditions noted are these: Enterobacter cloacae, P99, 18 h.
A further assay concerns C. freundii 2046E. In words: MIC, agar dilution method. Conditions: Citrobacter freundii, 18 h, read-out: MIC Piperacillin Alone.
A further assay deals with K. pneumoniae CTX1. The assay is described as follows: MIC, agar dilution method. The conditions noted are these: Klebsiella pneumoniae, CTX1, 18 h.
The subject of the next assay is P. vulgaris CT106. In words: MIC, agar dilution method. Conditions: Proteus vulgaris, CT106, 18 h, read-out: MIC Piperacillin Alone.
The next assay concerns E. cloacae E. 4009. In words: MIC, agar dilution method. Conditions: Enterobacter cloacae, E.4009, 18 h, read-out: MIC Piperacillin Alone.
The subject of the next assay is E. coli OXA 3. The assay is described as follows: MIC, agar dilution method. Conditions: Escherichia coli, OXA3, 18 h, read-out: MIC Piperacillin Alone.
For another assay, the system named is M. morganii 36014. The assay is described as follows: MIC, agar dilution method. Conditions: Morganella morganii, 36014, 18 h.
In the next assay the test system is E. cloacae 40011. The assay is described as follows: MIC, agar dilution method. Conditions: Enterobacter cloacae, 40011, 18 h.
In another assay the test system is S. aureus 1628. In words: MIC, agar dilution method. The conditions noted are these: Staphylococcus aureus, 1628, 18 h, read-out: MIC Piperacillin Alone.
For a further assay, the system named is M. morganii 36010. In words: MIC, agar dilution method. The conditions noted are these: Morganella morganii, 36010, 18 h.
In the next assay the test system is S. aureus 80K. The assay is described as follows: MIC, agar dilution method. Conditions: Staphylococcus aureus, 18 h, read-out: MIC Piperacillin Alone.
The subject of a further assay is E. coli TEM 7. The assay is described as follows: MIC, agar dilution method. The conditions noted are these: Escherichia coli, TEM7, 18 h.
The next assay concerns E. coli SHV 1. The assay is described as follows: MIC, agar dilution method. The conditions noted are these: Escherichia coli, SHV1, 18 h, read-out: MIC Piperacillin Alone.
In a further assay the test system is K. pneumoniae 336L. The assay is described as follows: MIC, agar dilution method. Conditions: Klebsiella pneumoniae, 18 h, read-out: MIC Piperacillin Alone.
The subject of a further assay is E. aerogenes. In words: MIC, agar dilution method. Conditions: Klebsiella aerogenes, 18 h, read-out: MIC Piperacillin Alone.
The test system of the next assay is A. calcoaceticus 553L. The assay is described as follows: MIC, agar dilution method. The conditions noted are these: Acinetobacter calcoaceticus, 18 h, read-out: MIC Piperacillin Alone.
The test system of a further assay is E. coli TEM 1. In words: MIC, agar dilution method. Conditions: Escherichia coli, TEM1, 18 h, read-out: MIC Piperacillin Alone.
Another assay relates to E. aerogenes 41004. The assay is described as follows: MIC, agar dilution method. Conditions: Klebsiella aerogenes, 41004, 18 h.
In another assay the test system is E. coli OXA 1. The assay is described as follows: MIC, agar dilution method. Conditions: Escherichia coli, OXA1, 18 h, read-out: MIC Piperacillin Alone.
The target in the next assay is T1, TEM-1 (Escherichia coli, UniProt P62593).
T1 construct: TEM-1 (isolated from E. coli); endogenous in cells; host or cells: E. coli (enzyme isolated from the bacterium)
T1 sequence (P62593 24-286 limits assumed): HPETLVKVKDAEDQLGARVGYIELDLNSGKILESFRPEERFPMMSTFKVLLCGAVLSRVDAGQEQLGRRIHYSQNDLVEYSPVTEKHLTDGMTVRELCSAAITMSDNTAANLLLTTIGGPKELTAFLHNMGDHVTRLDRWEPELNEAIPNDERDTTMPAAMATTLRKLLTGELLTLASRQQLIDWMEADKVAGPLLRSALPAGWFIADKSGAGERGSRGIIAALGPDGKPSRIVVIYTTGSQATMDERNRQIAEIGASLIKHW
The assay is described as follows: β-lactamase inhibitory activity, spectrophotometric rate assay with nitrocefin. The format is biochemical. The conditions noted are these: TEM-1 isolated from E. coli; nitrocefin substrate; read-out: 50% Inhibitory conc. TEM-1. As to the method:
(§1) The inhibitory activities of present compounds against TEM-1 (isolated from E. coli), CTX-1 (isolated from K. pneumoniae), cephalosporinase (isolated from P. aeruginoase 46012) was measured by spectrophotometric rate assay using […] and using nitrocefin as a substrate [J. Antimicrob. Chemother., 28, pp. 775-776 (1991)].

A further assay has as its target T2, cephalosporinase (Pseudomonas aeruginosa, UniProt P24735).
T2 construct: nitrocefin spectrophotometric assay
Described as above. Type of assay: biochemical. The conditions noted are these: cephalosporinase isolated from P. aeruginoase 46012; nitrocefin substrate; read-out: 50% Inhibitory conc. Cephalosporinase. As to the method:
as §1

The test system of another assay is E. cloacae E. 40009. In words: MIC, agar dilution method. Conditions: Enterobacter cloacae, E.40009, 18 h, read-out: MIC Ceftazidime (Alone).
The subject of the next assay is E. aerogenes 41006. In words: MIC, agar dilution method. The conditions noted are these: Klebsiella aerogenes, 41006, 18 h, read-out: MIC Ceftazidime (Alone).
In another assay the test system is P. aeruginosa L 46003. The assay is described as follows: MIC, agar dilution method. The conditions noted are these: Pseudomonas aeruginosa, L46003, 18 h, read-out: MIC Ceftazidime (Alone).
In another assay the test system is P. aeruginosa 46220 DR-2. The assay is described as follows: MIC, agar dilution method. The conditions noted are these: Pseudomonas aeruginosa, 46220DR2, 18 h, read-out: MIC Ceftazidime (Alone).
Another assay concerns E. aerogenes 41003. The assay is described as follows: MIC, agar dilution method. Conditions: Klebsiella aerogenes, 41003, 18 h, read-out: MIC Ceftazidime (Alone).
Setting [1] is: read-out: MIC Piperacillin Alone.
Where [2] appears, read: read-out: MIC Ceftazidime (Alone).

≈ marks a conversion by molar mass, not a printed value. Counter-ions that a name gives are not always drawn. Like-named read-outs stand apart in the source and are kept apart here.

T2 sequence (P24735 27-397): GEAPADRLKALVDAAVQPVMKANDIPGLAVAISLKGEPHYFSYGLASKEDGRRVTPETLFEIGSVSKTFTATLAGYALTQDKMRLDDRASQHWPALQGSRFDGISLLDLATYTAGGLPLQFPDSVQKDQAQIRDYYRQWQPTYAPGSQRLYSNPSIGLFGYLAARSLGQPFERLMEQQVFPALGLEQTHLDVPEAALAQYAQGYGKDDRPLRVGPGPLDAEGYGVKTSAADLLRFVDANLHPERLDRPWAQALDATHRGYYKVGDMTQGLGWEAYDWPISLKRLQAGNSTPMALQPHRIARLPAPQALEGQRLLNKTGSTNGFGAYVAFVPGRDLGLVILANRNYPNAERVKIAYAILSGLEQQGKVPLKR

For the molecule `CCN1CCN(C(=O)N[C@@H](C(=O)N[C@@H]2C(=O)N3[C@@H]2SC(C)(C)[C@@H]3C(=O)O)c2ccccc2)C(=O)C1=O` [Piperacillin, piperacillin], the MIC in the assay on S. marcescens 200L turned out to be 100 mg/L (≈ 193 µM); in the assay with E. coli TEM 3 (setting [1]) it was 100 mg/L (≈ 193 µM); in the assay with S. aureus 54K it was 12.5 mg/L (≈ 24.2 µM); in the assay on P. aeruginosa L 46007, 100 mg/L (≈ 193 µM); in the assay with E. cloacae 40015, 50 mg/L (≈ 96.6 µM); with E. cloacae P99 (setting [1]), 200 mg/L (≈ 386 µM). Also, the MIC is 100 mg/L (≈ 193 µM) in the assay with C. freundii 2046E; above 40 mg/L in the assay with K. pneumoniae CTX1 (setting [1]); 400 mg/L (≈ 773 µM) with P. vulgaris CT106; 100 mg/L (≈ 193 µM) with E. cloacae E. 4009; 3.13 mg/L (≈ 6.05 µM) in the assay with E. coli OXA 3; 50 mg/L (≈ 96.6 µM) in the assay on M. morganii 36014 (setting [1]). The MIC is 50 mg/L (≈ 96.6 µM) in the assay on E. cloacae 40011 (setting [1]); 400 mg/L (≈ 773 µM) in the assay on S. aureus 1628; 200 mg/L (≈ 386 µM) with M. morganii 36010 (setting [1]); 12.5 mg/L (≈ 24.2 µM) with S. aureus 80K; 100 mg/L (≈ 193 µM) in the assay on E. coli TEM 7 (setting [1]); 50 mg/L (≈ 96.6 µM) with E. coli SHV 1. Also, the MIC in the assay with K. pneumoniae 336L was 200 mg/L (≈ 386 µM); in the assay with E. aerogenes it was 25 mg/L (≈ 48.3 µM); with A. calcoaceticus 553L, above 400 mg/L; with E. coli TEM 1, 400 mg/L (≈ 773 µM); in the assay with E. aerogenes 41004 (setting [1]), 25 mg/L (≈ 48.3 µM); with E. coli OXA 1, 25 mg/L (≈ 48.3 µM).

On to `C[C@]1(C=NOCC(=O)O)[C@H](C(=O)O)N2C(=O)C[C@H]2S1(=O)=O` [Compound 28, (2S, 3R, 5R)-3-formyl-3-methyl-7-oxo-4-thia-1-azabicyclo[3.2.0]heptane-2-carboxylicacid, 3^1-[O-(carboxymethyl)oxime], disodium salt, 4,4-dioxide], for which the IC50 on TEM-1 was determined as 0.0048 µM; on cephalosporinase, 1 µM.

In the case of `CCCON=C[C@@]1(C)[C@H](C(=O)O)N2C(=O)C[C@H]2S1(=O)=O` [Compound 8, sodium (2S, 3R, 5R)-3-formyl-3-methyl-7-oxo-4-thia-1-azabicyclo[3.2.0]heptane-2-carboxylate, 3^1-(O-propyloxime), 4,4-dioxide], the IC50 at TEM-1 worked out at 0.1 µM; at cephalosporinase, 1 µM.

In the case of `CC(C)(O/N=C(\C(=O)N[C@@H]1C(=O)N2C(C(=O)[O-])=C(C[n+]3ccccc3)CS[C@H]12)c1csc(N)n1)C(=O)O` [Ceftazidime, ceftazidime], the MIC in the assay with E. cloacae E. 40009 was 100 mg/L (≈ 183 µM); in the assay on E. aerogenes 41006 it was 100 mg/L (≈ 183 µM); with E. coli TEM 3 (setting [2]) it was 25 mg/L (≈ 45.7 µM); with E. cloacae P99 (setting [2]), 100 mg/L (≈ 183 µM); in the assay with K. pneumoniae CTX1 (setting [2]), 100 mg/L (≈ 183 µM); in the assay on M. morganii 36014 (setting [2]) it was 25 mg/L (≈ 45.7 µM). The MIC in the assay with P. aeruginosa L 46003 was determined as 200 mg/L (≈ 366 µM); with E. cloacae 40011 (setting [2]), 50 mg/L (≈ 91.5 µM); in the assay on M. morganii 36010 (setting [2]), 200 mg/L (≈ 366 µM); with P. aeruginosa 46220 DR-2, 25 mg/L (≈ 45.7 µM); with E. coli TEM 7 (setting [2]), 25 mg/L (≈ 45.7 µM); in the assay on E. aerogenes 41003, 25 mg/L (≈ 45.7 µM). In addition, in the assay on E. aerogenes 41004 (setting [2]), the MIC was found to be 25 mg/L (≈ 45.7 µM).

Turning to `CCON=C[C@@]1(C)[C@H](C(=O)O)N2C(=O)C[C@H]2S1(=O)=O` [Compound 10, sodium (2S, 3R, 5R]-3-formyl-3-methyl-7-oxo-4-thia-1-azabicyclo[3.2.0]heptane-2-carboxylate, 3^1-(O-ethyloxime), 4,4-dioxide], the IC50 at TEM-1 was determined as 0.5 µM; on cephalosporinase, 1 µM.

Regarding `CC(=O)NN=C[C@@]1(C)[C@H](C(=O)O)N2C(=O)C[C@H]2S1(=O)=O` [Compound 38, sodium (2S, 3R, 5R)-3-formyl-3-methyl-7-oxo-4-thia-1-azabicyclo[3.2.0]heptane-2-carboxylate, 3^1-(acetylhydrazone), 4,4-dioxide], the IC50 at TEM-1 amounted to 0.0014 µM; at cephalosporinase, 0.6 µM.

As to `C[C@]1(C=NO)[C@H](C(=O)O)N2C(=O)C[C@H]2S1(=O)=O` [Compound 5, sodium (2S, 3R, 5R)-3-formyl-3-methyl-7-oxo-4-thia-1-azabicyclo[3.2.0]heptane-2-carboxylate, 3^1-(hydroxyloxime), 4,4-dioxide], the results for the IC50 at TEM-1 and on cephalosporinase were 0.58 µM and 7 µM, respectively.

Turning to `CON=C[C@@]1(C)[C@H](C(=O)O)N2C(=O)C[C@H]2S1(=O)=O` [Compound 3, sodium (2S, 3R, 5R)-3-formyl-3-methyl-7-oxo-4-thia-1-azabicyclo[3.2.0]heptane-2-carboxylate, 3^1-(O-methyloxime), 4,4-dioxide], the IC50 on TEM-1 amounted to 0.3 µM; on cephalosporinase it was 1.9 µM.
